# Test results reported in paper PMC11018795, “The regulatory relationship between NAMPT and PD-L1 in cancer and identification of a dual-targeting inhibitor” (EMBO Molecular Medicine, 2024).
# Values joined by “and” are separate entries in the source; they are usually repeats but may differ in a detail not shown here. Identical values can stand only once.
# Assays:
# [1] = test system: LLC OE NAMPT/PD-L1 tumors; assay: LLC OE NAMPT/PD-L1 tumor-bearing C57BL/6 mice; type: in vivo, mouse; settings: 20 mg/kg i.p.
# [2] = test system: PC9 cells; assay: MTT assay 48 h, PC9; type: cell-based, human
# Description: (§1) Cells (5 × 10^3/well) were seeded into a 96-well plate and cultured at 37 °C in a 5% CO2 incubator. […] At the final time point, 10 μl MTT solution (5 mg/ml, Sigma, Burlington, MA, USA) was added to each well and incubated for an additional 4 h at 37 °C in a 5% CO2 incubator. Then,100 μl of DMSO was added to each well and mixed thoroughly. Optical density was measured at 492 nm using a microplate reader (Molecular Devices, San Jose, CA, USA).
# [3] = test system: A2780 cells; assay: Clonogenic assay, A2780; type: cell-based, human; settings: 9 days
# Description: (§2) Cells (3 × 10^2/well) were plated in a six-well plate and the culture medium was replaced every 2 days. After culturing for 7–10 d, the cells were fixed with 4% paraformaldehyde for 15 min, stained with 0.1% crystal violet for 30 min, and imaged and counted.
# [4] = test system: LLC cells; assay: MTT assay 48 h, LLC; type: cell-based, mouse
# Description: as §1
# [5] = test system: HCT-116 cells; assay: MTT assay 48 h, HCT-116; type: cell-based, human
# Description: as §1
# [6] = test system: A20 tumors; assay: A20 tumor-bearing Balb/c mice; type: in vivo, mouse; settings: for tumor inhibition rate (TIR) / tumor growth inhibition (TGI) rate at endpoint: 12 days, Fig 6B
# [7] = test system: LLC cells; assay: Apoptosis assay (Annexin V/PI), LLC; type: cell-based, mouse
# Description: (§3) The cells are treated with the compounds. After 48–72 h, the cells were harvested and washed twice with cold PBS. The cells were then stained with Annexin V/propidium iodide (PI) (BD Biosciences) and examined using a NovoCyte Flow Cytometer (ACEA Biosciences). Data were analyzed using NovoExpress software (ACEA Biosciences).
# [8] = test system: LLC OE NAMPT cells co-cultured with T cells; assay: T cell-mediated tumor cell killing assay, LLC OE NAMPT; type: cell-based; settings: Mus musculus, 100 nM, read-out: inhibition rate (T cell-mediated killing)
# Description: To acquire activated T cells, human peripheral blood mononuclear cells (PBMC; LTS1077, Yanjin Biological) were cultured in CTSTM AIIM VTM SFM (A3021002; Gibco) with ImmunoCult Human CD3/CD28/CD2 T-cell activator (25 µL/mL; […] Technologies, Cat#10970) for 48 h according to the manufacturer’s protocol. The experiments were performed using mouse anti-CD3 antibody (1 µg/mL; Thermo Scientific, 16-0032-82) and anti-CD28 antibody(5 µg/mL; Thermo Scientific, 16-0281-82). Cancer cells were allowed to adhere to the plates overnight and then incubated for 48 h with activated T cells in the presence or absence of DX ([…]). Different proportions of cancer cells and activated T cells were utilized according to the purpose of each experiment. The T-cell proliferation assay was 1:3; the T-cell killing assay was 1:10; T cells and cell debris were removed by PBS washing, and the living cancer cells were then quantified by a spectrometer at OD (570 nm) followed by crystal violet staining. page 12: Fig 3: […] expression patterns. […] Data was obtained from the TCGA database. (B) T cell-mediated tumor cell killing assay. T cells were co-cultured with LLC Vector, […] CQ-85, or BMS202. […] stained by crystal violet. The relative added value of activated T cells is shown below. Data are presented as mean ± SEM; *P < 0.05, **P < 0.01, ***P < 0.001, compared with control. n.s., not significant. […]
# [9] = test system: LLC cells; assay: Clonogenic assay, LLC; type: cell-based, mouse; settings: 9 days
# Description: as §2
# [10] = test system: HCT-116 cells; assay: Apoptosis assay (Annexin V/PI), HCT-116; type: cell-based, human; settings: HCT116
# Description: as §3
# [11] = In vitro metabolic stability in human liver microsome; type: in vitro ADME
# Description: 2) Pharmacokinetics: Human liver microsomal stability assay is widely adopted in the preliminary evaluation for pharmacokinetic properties, reflecting the potential metabolic stability of indicated compounds in the human body. Thus, considering the […]
# activity of LZFPN-90, it was further evaluated for potential metabolism in human liver microsome. The intrinsic clearance for LZFPN-90 in human liver microsome is 0.035 mL/min/mg. According to the classical criteria (Low clearance: CLint < 0.01 mL/min/mg; medium clearance: 0.01 ≤ CLint ≤ 0.1 mL/min/mg; high clearance: CLint > […]
# indicating its potential for further development. […]
# Table 1. In Vitro Metabolic Stability of LZFPN-90 in Human Liver Microsome T1/2 CLint, in vitro Remaining
# (min)a (mL/min/mg)b (T = 60 min) […]
# b CLint: intrinsic clearance, CLint(mic)=0.693/T1/2/mg microsomal protein/mL
# (1 picture or pasted object on this page, not shown here)
# [12] = test system: A2780, HCT-116, LLC, CT-26 cells co-cultured with T cells; assay: T-cell-mediated tumor cell killing assay, A2780, HCT-116, LLC, CT-26; type: cell-based, human, mouse; settings: 72 h co-culture
# Description: To acquire activated T cells, human peripheral blood mononuclear cells (PBMC; LTS1077, Yanjin Biological) were cultured in CTSTM AIIM VTM SFM (A3021002; Gibco) with ImmunoCult Human CD3/CD28/CD2 T-cell activator (25 µL/mL; […] Technologies, Cat#10970) for 48 h according to the manufacturer’s protocol. The experiments were performed using mouse anti-CD3 antibody (1 µg/mL; Thermo Scientific, 16-0032-82) and anti-CD28 antibody(5 µg/mL; Thermo Scientific, 16-0281-82). […] Different proportions of cancer cells and activated T cells were utilized according to the purpose of each experiment. The T-cell proliferation assay was 1:3; the T-cell killing assay was 1:10; T cells and cell debris were removed by PBS washing, and the living cancer cells were then quantified by a spectrometer at OD (570 nm) followed by crystal violet staining.
structure (smiles),measurement,setting,value
CCN(CC)CCCOc1cccc(-c2cccc3c2CCN3C(=O)c2ncc(CNC(=NC#N)Nc3ccncc3)s2)c1 [LZFPN-90],TIR / tumor growth inhibition (TGI) rate at endpoint,"[1]; 14 days, Fig 7B",76.01%
same,TIR (relative tumor weight),"[1]; LLC OE NAMPT/PD-L1, Fig 7G",76.0%
same,effect on the organs of mice,[1]; LLC OE NAMPT/PD-L1 model,minor effect on the organs of mice
same,Relative inhibition (敏感性),[2],0.29
same,Colony formation relative to Ctrl,[3]; LZ90-H (2 nM),0.01
same,Colony formation relative to Ctrl,"[3]; LZ90-L (0.5 nM), Ctrl = 1",0.64
same,Colony formation relative to Ctrl,[3]; LZ90-M (1 nM),0.11
same,Relative inhibition (敏感性),[4]; LLC,0.15
same,effect on relative viability of LLC cells,"[4]; MTT, 64 nM",basically had no effect
same,Relative inhibition (敏感性),[5],0.61
same,tumor inhibition rate (TIR) / tumor growth inhibition (TGI) rate at endpoint,[6]; 20 mg/kg i.p.,73.76%
same,tumor inhibition rate (TIR) / tumor growth inhibition (TGI) rate at endpoint,[6]; 40 mg/kg i.p.,83.11%
same,effect on mouse organ or body weight,"[6]; A20 model, FK866 20 mg/kg, LZFPN-90 20 and 40 mg/kg i.p.",no obvious effect on mouse organ or body weight
same,TIR (relative tumor weight),"[6]; Balb/c mice, 20 mg/kg i.p., Fig 6E",73.8%
same,tumor inhibition rate (TIR),"[6]; repeat experiment, 40 mg/kg i.p.",82.70%
same,effect on mouse organ index or body weight,"[6]; repeat experiment, LZFPN-90 40 mg/kg, FK866 20 mg/kg + CQ-85 20 mg/kg i.p.",no obvious effect on mouse organ index or body weight
same,effect on body weight and organ index,[6]; two animal models (A20 and LLC OE NAMPT/PD-L1),did not affect the body weight and organ index
same,Apoptotic cells (sum of both Annexin-positive quadrants),[7]; LZ90 15 nM,5.3 and 5.6 and 7.76
same,Apoptotic cells (sum of both Annexin-positive quadrants),[7]; LZ90 60 nM,15.11 and 14.38 and 15.17
same,Apoptotic cells (sum of both Annexin-positive quadrants),[7]; LZ90 240 nM,25.37 and 24.61 and 22.88
same,inhibition at 0.1 µM,[8],~60%
same,Colony formation relative to Ctrl,[9]; LZ90-H (80 nM),0.24
same,Colony formation relative to Ctrl,"[9]; LZ90-L (20 nM), Ctrl = 1",0.68
same,Colony formation relative to Ctrl,[9]; LZ90-M (40 nM),0.53
same,Apoptotic cells (sum of both Annexin-positive quadrants),[10]; LZ90 15 nM,9.8 and 11.59 and 10.81
same,Apoptotic cells (sum of both Annexin-positive quadrants),[10]; LZ90 60 nM,14.57 and 17.94 and 17.19
same,Apoptotic cells (sum of both Annexin-positive quadrants),[10]; LZ90 240 nM,13.96 and 15.34 and 15.58
same,stability in human liver microsome,"[11]; criteria: low CLint < 0.01, medium 0.01-0.1, high > 0.1 mL/min/mg",moderate stability in human liver microsome
same,Remaining (T = 60 min),[11]; human liver microsome,36.8%
same,half-life,"[11]; liver microsomes, human liver microsome",39.6 min
same,microsomal CLint,"[11]; liver microsomes, human liver microsome, read-out: CLint, in vitro (intrinsic clearance)",35 µL/min/mg
same,"T-cell killing of tumor cells, comparison at the same concentration",[12],more effective than BMS202
